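Test compounds were applied to cells in 96-well plates for 48 hours at 5 doses. At the TGI there is no net growth.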

Holding throughout (assay): growth of human tumour cells (NCI), 48 h
Assay [1] deals with COLO 205 colon.
Assay [2] deals with HCC-2998 colon.
Assay [3] has as its system K-562 leukemia.
Assay [4] has as its system LOX IMVI melanoma.
The test system of assay [5] is MOLT-4 leukemia.
The subject of assay [6] is NCI-H23 lung.
Assay [7] has as its system NCI-H460 lung.
The subject of assay [8] is NCI/ADR-RES ovarian.
Assay [9] deals with OVCAR-3 ovarian.
Assay [10] has as its system PC-3 prostate.
The test system of assay [11] is SF-268 CNS.
In assay [12] the test system is SF-295 CNS.
The test system of assay [13] is SK-MEL-2 melanoma.
Assay [14] concerns SN12C renal.
Assay [15] deals with SNB-75 CNS.
For assay [16], the system named is SW-620 colon.
Assay [17] has as its system U251 CNS.
For assay [18], the system named is UACC-62 melanoma.
Assay [19] relates to ACHN renal.
The test system of assay [20] is CCRF-CEM leukemia.

As to `CCOC(=O)c1nnsc1NN=C(C)C`, the TGI in assay [1], in [2], in [3], in assay [4], in [5] and in assay [6] was above 100 µM each time. Moreover, the TGI in assay [7], in assay [8], in [9], in assay [10], in assay [11] and in assay [12] was above 100 µM in each case. Also, the TGI in assay [13], in assay [14], in assay [15], in assay [16], in assay [17] and in [18] was above 100 µM in each case.

Turning to `C/C=N\n1c(C)c(C#N)c(C#N)c1N`, the TGI in assay [19], in [20], in assay [1], in assay [2], in assay [3] and in assay [4] was above 100 µM throughout. Besides, the TGI in [5], in assay [6], in [8], in assay [9], in assay [10] and in [11] was above 100 µM in each case. Also, the TGI in assay [12], in assay [13], in assay [14], in assay [15], in assay [16] and in assay [17] was above 100 µM each time. The TGI in [18] was above 100 µM.

As for `O=[N+]([O-])c1ccc(N/N=C(\c2ccccc2)c2ccccn2)nc1`, the TGI in assay [19] is 18.7 µM; in [20], above 91.5 µM; in [1], above 60 µM; in assay [2], above 59.6 µM; in [3] it was above 100 µM; in assay [5], above 67.2 µM. Also, the TGI in assay [6] was 14.9 µM; in assay [7], 22.8 µM; in assay [8], 2.02 µM; in assay [9], 23.3 µM; in assay [10], above 44.7 µM; in [11], 35.5 µM. Further, the TGI in assay [12] is 25.7 µM; in assay [13], above 94.9 µM; in assay [14], above 68.9 µM; in assay [15], 28.4 µM; in assay [16], above 77.1 µM; in assay [17] it was above 81.8 µM. The same molecule returned a TGI in assay [18] above 54.3 µM.

On to `Cc1cc(O)c(C=NC(=S)c2ccccc2)c(=O)o1`, for which the TGI in assay [19], in assay [1], in [2], in assay [4], in assay [5] and in assay [6] was above 100 µM in each case. In addition, the TGI in assay [7], in assay [8], in [9], in assay [10], in [12] and in assay [13] was above 100 µM throughout. The TGI in [14], in assay [15], in assay [16], in assay [17] and in assay [18] was above 100 µM each time.

For the molecule `COCCN(CCOC)C(=O)COc1c2cc(C(C)(C)C)cc1Cc1cc(C(C)(C)C)cc(c1OCC(=O)N(CCOC)CCOC)Cc1cc(C(C)(C)C)cc(c1OCC(=O)N(CCOC)CCOC)Cc1cc(C(C)(C)C)cc(c1OCC(=O)N(CCOC)CCOC)Cc1cc(C(C)(C)C)cc(c1OCC(=O)N(CCOC)CCOC)C2`, the TGI was 12.6 µM in [19]; 1.96 µM in assay [1]; 18.3 µM in assay [2]; 8.92 µM in assay [4]; 4.19 µM in assay [6]; 5.86 µM in assay [7]. Further, the TGI in assay [8] came out at 33 µM; in assay [9], 10.2 µM; in [10], 3.48 µM; in assay [11], 19.1 µM; in assay [12] it was 6.43 µM; in assay [13] it was 3.19 µM. Moreover, the TGI turned out to be 11.4 µM in assay [14]; 0.576 µM in assay [15]; 11.9 µM in assay [16]; 2.05 µM in assay [17]; 3.53 µM in assay [18].

Turning to `COC(=O)/C(=N\NC(=S)NN)C(C(=O)OC)C(=O)C(=O)Nc1cccc(C(F)(F)F)c1` (configuration not stated), the TGI in assay [19], in [20], in [2], in assay [4], in [6] and in [7] was above 100 µM in each case. Moreover, the TGI in [8], in [9], in assay [10], in assay [11], in [12] and in assay [13] was above 100 µM in each case. For the same molecule, the TGI in [14], in [15], in [16], in [17] and in assay [18] was above 100 µM throughout.

Regarding `CCOC(=O)N/N=C(\Cc1ccc([N+](=O)[O-])cc1)OCC`, the TGI in [19], in assay [20], in assay [1], in assay [2], in [3] and in assay [4] was above 100 µM throughout. Besides, the TGI in [5], in [6], in assay [8], in [9], in assay [10] and in [11] was above 100 µM in each case. Also, the TGI in assay [12], in [13], in assay [14], in assay [15], in assay [16] and in [17] was above 100 µM each time. Further, in assay [18], the TGI was above 100 µM.

Take `O=c1c2cc(-c3ccccc3)cnc2sn1-c1ccc(Oc2ccccc2)cc1`: the TGI is above 100 µM in assay [19]; 82.9 µM in assay [20]; above 100 µM in [1]; above 100 µM in [2]; above 100 µM in assay [3]; above 100 µM in assay [5]. The TGI in assay [6] is above 100 µM; in assay [7], above 100 µM; in [8] it was 80.1 µM; in assay [9] it was above 100 µM; in [10] it was 52.1 µM; in [11] it was above 100 µM. Besides, the TGI is above 100 µM in assay [12]; above 100 µM in [13]; 89.8 µM in [14]; 75.9 µM in [15]; above 100 µM in [16]; 78.1 µM in assay [17]. This molecule also gave a TGI in [18] above 100 µM.

`CN(C)C(=S)N/N=C(\C(=N/NC(=S)N(C)C)c1ccccn1)c1ccccn1`: the TGI in assay [19] is 20.1 µM; in [1] it was 24.2 µM; in assay [2] it was 37.5 µM; in assay [3], above 100 µM; in assay [4], above 100 µM; in assay [6] it was above 53.2 µM. Besides, the TGI in assay [7] is 22.7 µM; in [8], 62.1 µM; in [9], 14.6 µM; in assay [10], 24.4 µM; in [11] it was 23.7 µM; in [12], 29.6 µM. In addition, the TGI is 36.7 µM in assay [13]; 20.3 µM in assay [14]; 27.4 µM in [15]; 29.9 µM in [16]; 20.4 µM in assay [17]; 32.8 µM in [18].

Regarding `CC1=CC(=O)C(=CN2C(=O)/C(=C\c3cccnc3)NC2=S)C(=O)O1`, the TGI in [19], in assay [1], in assay [2], in assay [4], in assay [5] and in [6] was above 100 µM each time. The TGI in assay [7], in assay [8], in [9], in assay [10], in [12] and in assay [13] was above 100 µM each time. Moreover, the TGI in assay [14], in [15], in assay [16] and in assay [17] was above 100 µM each time.

On to `CC1=CC(=O)[C@@H](O)[C@]2(C)[C@H]3[C@@]4(O)OC[C@@]35[C@@H](C[C@@H]12)OC(=O)C(OC(=O)CC1=CCCC1)[C@H]5[C@@H](C)[C@H]4O` (some centres not stated), for which the TGI in assay [19] was 0.35 µM; in [20], 0.136 µM; in assay [1] it was 0.724 µM; in assay [2] it was 0.232 µM; in assay [3] it was above 100 µM; in [4], 0.0653 µM. Further, the TGI amounted to 2.53 µM in [5]; 0.152 µM in assay [6]; 0.133 µM in assay [7]; 1.21 µM in assay [8]; 0.733 µM in [10]; 0.132 µM in [11]. For the same molecule, the TGI is 0.448 µM in [12]; 0.237 µM in assay [13]; 0.435 µM in [14]; 0.155 µM in assay [15]; above 29.5 µM in [16]; 0.21 µM in assay [18].

As for `CC(=O)C1=C(C)N2C(=NC3=C(CCc4ccccc43)C2c2cccc(Br)c2)S1` (configuration not stated), the TGI in assay [19], in assay [20], in [1], in assay [2], in assay [4] and in [6] was above 100 µM each time. Also, the TGI in assay [8], in [9], in [10], in [11], in assay [12] and in assay [13] was above 100 µM each time. In addition, the TGI in assay [14], in [15], in assay [16], in assay [17] and in [18] was above 100 µM throughout.

Turning to `CSc1nc2c(c(=O)[nH]1)N=C(c1ccc(Cl)cc1)CC(c1ccccc1)N2` (configuration not stated), the TGI in assay [19] amounted to 29 µM; in assay [20], 37.4 µM; in assay [1] it was 34 µM; in assay [2], 28.8 µM; in [3] it was 44.9 µM; in assay [4], 44.2 µM. Further, the TGI in [5] is 61.8 µM; in assay [6] it was 30 µM; in [8], 29.5 µM; in assay [9], 28.5 µM; in [10], 45.3 µM; in assay [12] it was 32.6 µM. Besides, the TGI was 31.7 µM in [13]; 30 µM in assay [14]; 24.7 µM in [15]; 39.1 µM in assay [16]; 39.3 µM in assay [17].

In the case of `COC(=O)CCc1ccc2c(c1)CC1(Cc3ccccc3C1)C2`, the TGI in [19], in assay [20], in assay [1], in assay [2], in assay [3] and in assay [4] was above 100 µM in each case. The TGI in assay [5], in [6], in [8], in [9], in [10] and in [12] was above 100 µM in each case. Moreover, the TGI in assay [13], in assay [14], in assay [15], in assay [17] and in assay [18] was above 100 µM each time.

In the case of `CCOC1(OCC)N=C(N)C2(C#N)C3(C(=O)N(C(C)C)N=C3C)C12C#N` (configuration not stated), the TGI in [19], in assay [20], in assay [1], in [2], in assay [3] and in assay [5] was above 100 µM throughout. Also, the TGI in [6], in assay [7], in [8], in [9], in [10] and in assay [11] was above 100 µM throughout. Further, the TGI in assay [12], in assay [13], in assay [14], in assay [15], in assay [16] and in assay [17] was above 100 µM in each case. This molecule also had a TGI in assay [18] above 100 µM.

The record behind these values is PubChem BioAssay (NCI).
